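Following 48 hours of exposure in 96-well plates, responses at five concentrations were used to interpolate endpoints linearly. GI50: concentration for 50% inhibition of growth. TGI: concentration producing complete growth inhibition.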

Some test systems named below: COLO 205 colon; EKVX NSCLC; HCC-2998 colon; HCT-15 colon; HL-60(TB) leukemia; M14 melanoma; MDA-MB-435; OVCAR-5 ovarian; OVCAR-8 ovarian; SF-268 CNS.
Holding throughout (assay): DTP human tumour cell line panel, 48 h

On to `O=C1/C(=C\c2ccco2)Oc2ccccc21`, for which the TGI in the assay on COLO 205 colon, in the assay on EKVX NSCLC, in the assay with HCC-2998 colon, with HCT-15 colon, in the assay with HL-60(TB) leukemia and in the assay with M14 melanoma was greater than 100 µM throughout. Also, the TGI with MDA-MB-435, with OVCAR-5 ovarian, with OVCAR-8 ovarian and in the assay with SF-268 CNS was greater than 100 µM each time.

As for `O=C(CC1(O)C(=O)Nc2ccc(F)cc21)c1ccc(C(=O)NCC2CCC3(CC2)OOC2(CCCCC2)OO3)cc1` (stereo not given), the GI50 – broadly, the concentration at which growth is held to half of that of the control – with COLO 205 colon was 5.37 µM; in the assay on EKVX NSCLC, 1.87 µM; with HCC-2998 colon, 14.6 µM; with HCT-15 colon it was 11.4 µM; with HL-60(TB) leukemia it was 1.43 µM; with M14 melanoma it was 12.2 µM. In addition, the GI50 is 3.04 µM in the assay with MDA-MB-435, 15.7 µM in the assay on OVCAR-5 ovarian, 6.3 µM with OVCAR-8 ovarian and 10.8 µM with SF-268 CNS. Further, the TGI (in general, the concentration at which net growth stops) in the assay with COLO 205 colon amounted to 22.9 µM; with EKVX NSCLC, 3.98 µM; with HCC-2998 colon, 30 µM; with HCT-15 colon, 27.9 µM; in the assay on HL-60(TB) leukemia, 3.46 µM; in the assay with M14 melanoma it was 39.3 µM. Also, the TGI amounted to 10.8 µM with MDA-MB-435, 36.5 µM with OVCAR-5 ovarian, 35.8 µM in the assay with OVCAR-8 ovarian and 30.8 µM in the assay on SF-268 CNS.

As for `CCCCCCCCCc1ccc(OCCOCCOCCOCCOCCOCCOCCOCCOCCO)cc1`, the 50% growth inhibitory concentration (GI50) in the assay on COLO 205 colon was 0.243 µM; in the assay on EKVX NSCLC it was 0.452 µM; in the assay with HCC-2998 colon, 0.75 µM; in the assay on HCT-15 colon, 0.761 µM; in the assay with HL-60(TB) leukemia it was 0.31 µM; with M14 melanoma, 0.892 µM. In addition, the GI50 in the assay with MDA-MB-435 was 0.832 µM; in the assay on OVCAR-5 ovarian it was 1.1 µM; with OVCAR-8 ovarian, 0.231 µM; in the assay on SF-268 CNS, 0.685 µM. The total growth inhibition concentration (TGI) was found to be 0.829 µM in the assay on COLO 205 colon; 5.78 µM in the assay on EKVX NSCLC; 1.85 µM in the assay with HCC-2998 colon; 1.84 µM in the assay on HCT-15 colon; 1.37 µM with HL-60(TB) leukemia; 2.13 µM in the assay on M14 melanoma. The total growth inhibition concentration (TGI) in the assay on MDA-MB-435 was 3.05 µM; in the assay on OVCAR-5 ovarian, 3.54 µM; in the assay on OVCAR-8 ovarian, 2.71 µM; with SF-268 CNS it was 3.37 µM.

Regarding `ClCc1cccc(Cn2cnc3c(Cl)nc(Cl)nc32)c1`, the GI50 in the assay on COLO 205 colon was 2.22 µM; in the assay with EKVX NSCLC, 1.74 µM; in the assay on HCC-2998 colon, 1.61 µM; with HCT-15 colon it was 2.41 µM; in the assay on HL-60(TB) leukemia, 0.642 µM; in the assay on M14 melanoma it was 1.79 µM. Also, the GI50 with MDA-MB-435 is 1.69 µM; with OVCAR-5 ovarian, 6.52 µM; in the assay on OVCAR-8 ovarian it was 1.81 µM; with SF-268 CNS, 2.5 µM. Further, the TGI is 5.39 µM with COLO 205 colon; 3.35 µM in the assay on EKVX NSCLC; 3.15 µM in the assay with HCC-2998 colon; 6.84 µM in the assay on HCT-15 colon; greater than 100 µM in the assay on HL-60(TB) leukemia; 3.41 µM in the assay with M14 melanoma. In addition, the TGI in the assay on MDA-MB-435 came out at 3.26 µM; in the assay with OVCAR-5 ovarian, 20.2 µM; in the assay on OVCAR-8 ovarian, 3.51 µM; with SF-268 CNS, 6.64 µM.

Consider `CC(NC(=O)Cc1ccc(C(F)(F)P(=O)(OCc2ccc([N+](=O)[O-])o2)N(C)CCCCCl)cc1)c1ccc(OCC2CCCCC2)c(C(N)=O)c1` (stereo not given), for which the GI50 is 3.94 µM with COLO 205 colon; 4.92 µM in the assay with EKVX NSCLC; 3.25 µM in the assay on HCC-2998 colon; 4.85 µM with HCT-15 colon; 1.89 µM with HL-60(TB) leukemia; 0.398 µM in the assay on M14 melanoma. In addition, the GI50 in the assay on MDA-MB-435 is 2.69 µM; in the assay with OVCAR-5 ovarian, 15.6 µM; in the assay on OVCAR-8 ovarian, 12.1 µM; in the assay with SF-268 CNS it was 4.8 µM. For the same molecule, the TGI worked out at 11.2 µM with COLO 205 colon; 16.7 µM in the assay with EKVX NSCLC; 9.11 µM in the assay with HCC-2998 colon; 16.1 µM in the assay with HCT-15 colon; 4.72 µM with HL-60(TB) leukemia; 1.99 µM in the assay on M14 melanoma. Moreover, the TGI in the assay with MDA-MB-435 stood at 6.73 µM; with OVCAR-5 ovarian, 33.1 µM; in the assay on OVCAR-8 ovarian, 41.9 µM; in the assay with SF-268 CNS it was 15.5 µM.

In the case of `CN(Cc1ccc(F)cc1)c1ccc(CO)c(Cl)c1`, the GI50 with COLO 205 colon was 5.86 µM; in the assay on EKVX NSCLC, 26.9 µM; in the assay on HCC-2998 colon, 14.9 µM; with HCT-15 colon, 18.3 µM; with HL-60(TB) leukemia, 12.5 µM; in the assay on M14 melanoma it was 23.3 µM. In addition, the GI50 in the assay on MDA-MB-435 is 44.7 µM; in the assay on OVCAR-5 ovarian, 0.426 µM; in the assay with OVCAR-8 ovarian it was 20.7 µM; in the assay on SF-268 CNS, 37.8 µM. Moreover, the total growth inhibition concentration (TGI) is 19.8 µM in the assay on COLO 205 colon; greater than 100 µM in the assay on EKVX NSCLC; 57 µM in the assay with HCC-2998 colon; greater than 100 µM in the assay on HCT-15 colon; 54 µM with HL-60(TB) leukemia; greater than 76.9 µM in the assay on M14 melanoma. The TGI in the assay on MDA-MB-435 was greater than 100 µM; with OVCAR-5 ovarian it was 2.37 µM; in the assay on OVCAR-8 ovarian, greater than 100 µM; in the assay on SF-268 CNS it was greater than 100 µM.

As for `COc1ccc(-c2c(C#N)c(N)nc(N3CCOCC3)c2C#N)cc1`, the GI50 in the assay on COLO 205 colon is 2.13 µM; with EKVX NSCLC it was 21.4 µM; in the assay on HCC-2998 colon, 13 µM; in the assay with HCT-15 colon it was 18.8 µM; in the assay with HL-60(TB) leukemia, 20.2 µM; with M14 melanoma, 22.6 µM. In addition, the GI50 was 28.5 µM in the assay with MDA-MB-435, 13.9 µM in the assay on OVCAR-5 ovarian, 26 µM with OVCAR-8 ovarian and 32.3 µM with SF-268 CNS. In addition, the TGI is 26.5 µM in the assay on COLO 205 colon; greater than 100 µM in the assay on EKVX NSCLC; 31.6 µM with HCC-2998 colon; 62.4 µM with HCT-15 colon; 63.5 µM in the assay with HL-60(TB) leukemia; 72.8 µM in the assay with M14 melanoma. The concentration for total growth inhibition (TGI) with MDA-MB-435 was greater than 100 µM; with OVCAR-5 ovarian, 59.9 µM; with OVCAR-8 ovarian, greater than 100 µM; with SF-268 CNS it was greater than 100 µM.

`O=[N+]([O-])c1cc([As](Br)c2ccc(O)c([N+](=O)[O-])c2)ccc1O`: the TGI with COLO 205 colon is 3.25 µM; with EKVX NSCLC, 3.86 µM; in the assay with HCC-2998 colon, 2.72 µM; in the assay with HCT-15 colon it was greater than 20.8 µM; with HL-60(TB) leukemia it was 4.63 µM; in the assay on M14 melanoma, 4.33 µM. Also, the concentration for total growth inhibition (TGI) with MDA-MB-435 came out at 3.51 µM; with OVCAR-5 ovarian, 4.2 µM; in the assay with OVCAR-8 ovarian, 3.21 µM; in the assay with SF-268 CNS, 5.59 µM.

Source of the values: PubChem BioAssay (NCI).
